Assay results reported in article PMC11233931, “Remodeling tumor‐associated macrophage for anti‐cancer effects by rational design of irreversible inhibition of mitogen‐activated protein kinase‐activated protein kinase 2” (MedComm, 2024).

What was measured:
Experiment in all cases: Eurofins kinase selectivity profile against 380 other human recombinant kinases (Table S2)
Assay type in all cases: biochemical
[1] = molecular target: T1, 380 human recombinant protein kinases (Homo sapiens, UniProt O00238); settings: ALK6(h), read-out: Inhibition rate
T1 construct: purchased Eurofins (Celle Lévescault)
Summary of the method: (§1)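 Outsourced panel: 380 human recombinant kinases; inhibitor tested at various concentrations; purpose: MK2 selectivity check.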

[2] = molecular target: T2, 380 human recombinant protein kinases (Homo sapiens, UniProt O14578); settings: CRIK(h), read-out: Inhibition rate
T2 construct: purchased Eurofins (Celle Lévescault)
Summary of the method: as §1

[3] = molecular target: T3, 380 human recombinant protein kinases (Homo sapiens, UniProt P50613); settings: CDK7/cyclinH/MAT1(h), read-out: Inhibition rate
T3 construct: purchased Eurofins (Celle Lévescault)
Summary of the method: as §1

[4] = molecular target: T4, 380 human recombinant protein kinases (Homo sapiens, UniProt Q13177); settings: PAK2(h), read-out: Inhibition rate
T4 construct: purchased Eurofins (Celle Lévescault)
Summary of the method: as §1

[5] = molecular target: T5, 380 human recombinant protein kinases (Homo sapiens, UniProt Q14680); settings: MELK(h), read-out: Inhibition rate
T5 construct: purchased Eurofins (Celle Lévescault)
Summary of the method: as §1

[6] = molecular target: T6, 380 human recombinant protein kinases (Homo sapiens, UniProt Q15119); settings: PDHK2(h), read-out: Inhibition rate
T6 construct: purchased Eurofins (Celle Lévescault)
Summary of the method: as §1

[7] = molecular target: T7, 380 human recombinant protein kinases (Homo sapiens, UniProt Q96BR1); settings: SGK3(h), read-out: Inhibition rate (%)
T7 construct: purchased Eurofins (Celle Lévescault)
T7 sequence (Q96BR1 1-496): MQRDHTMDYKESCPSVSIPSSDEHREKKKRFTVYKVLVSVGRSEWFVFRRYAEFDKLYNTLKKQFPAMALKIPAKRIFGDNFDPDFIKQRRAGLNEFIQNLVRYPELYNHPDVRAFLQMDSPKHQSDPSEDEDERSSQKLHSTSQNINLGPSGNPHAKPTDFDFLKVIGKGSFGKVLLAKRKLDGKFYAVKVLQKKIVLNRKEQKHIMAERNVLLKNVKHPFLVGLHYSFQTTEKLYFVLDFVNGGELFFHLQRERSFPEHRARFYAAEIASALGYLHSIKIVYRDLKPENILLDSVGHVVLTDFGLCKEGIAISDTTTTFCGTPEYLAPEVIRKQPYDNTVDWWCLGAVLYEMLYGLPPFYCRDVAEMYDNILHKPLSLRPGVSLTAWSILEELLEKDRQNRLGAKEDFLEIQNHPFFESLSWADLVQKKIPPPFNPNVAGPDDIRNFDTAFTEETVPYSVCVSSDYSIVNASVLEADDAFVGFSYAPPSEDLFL
Summary of the method: as §1

[8] = molecular target: T8, 380 human recombinant protein kinases (Homo sapiens, UniProt Q99986); settings: VRK1(h), read-out: Inhibition rate (%)
T8 construct: purchased Eurofins (Celle Lévescault)
T8 sequence (Q99986 1-396): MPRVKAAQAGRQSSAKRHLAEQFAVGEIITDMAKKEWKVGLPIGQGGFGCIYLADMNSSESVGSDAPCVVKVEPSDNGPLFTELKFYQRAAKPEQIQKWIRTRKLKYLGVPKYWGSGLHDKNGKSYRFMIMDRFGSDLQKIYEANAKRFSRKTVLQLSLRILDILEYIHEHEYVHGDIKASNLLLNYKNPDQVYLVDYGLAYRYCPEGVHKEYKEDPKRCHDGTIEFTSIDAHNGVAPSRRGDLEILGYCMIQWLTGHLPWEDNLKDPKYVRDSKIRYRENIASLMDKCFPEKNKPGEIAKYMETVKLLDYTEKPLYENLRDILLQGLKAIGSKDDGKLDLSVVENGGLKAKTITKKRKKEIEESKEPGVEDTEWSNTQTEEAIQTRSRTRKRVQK
Summary of the method: as §1

[9] = molecular target: T9, 380 human recombinant protein kinases (Homo sapiens, UniProt Q9NSY1); settings: BIKe(h), read-out: Inhibition rate
T9 construct: purchased Eurofins (Celle Lévescault)
Summary of the method: as §1

[10] = molecular target: T10, 380 human recombinant protein kinases (Homo sapiens, UniProt Q9UEE5); settings: DRAK1(h), read-out: Inhibition rate
T10 construct: purchased Eurofins (Celle Lévescault)
T10 sequence (Q9UEE5 1-414): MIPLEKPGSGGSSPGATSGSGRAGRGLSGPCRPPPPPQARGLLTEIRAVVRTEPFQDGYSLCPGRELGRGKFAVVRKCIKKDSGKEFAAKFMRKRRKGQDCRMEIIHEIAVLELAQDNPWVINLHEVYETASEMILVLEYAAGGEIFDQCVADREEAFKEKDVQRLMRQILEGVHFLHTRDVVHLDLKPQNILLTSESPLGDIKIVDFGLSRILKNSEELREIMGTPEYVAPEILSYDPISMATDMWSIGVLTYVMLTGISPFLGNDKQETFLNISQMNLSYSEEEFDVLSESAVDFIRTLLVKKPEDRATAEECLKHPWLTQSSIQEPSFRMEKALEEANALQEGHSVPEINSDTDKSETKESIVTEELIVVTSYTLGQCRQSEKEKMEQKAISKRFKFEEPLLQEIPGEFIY
Summary of the method: as §1

[11] = system: 380 human recombinant protein kinases
Summary of the method: as §1

T4 sequence (Q13177 whole entry): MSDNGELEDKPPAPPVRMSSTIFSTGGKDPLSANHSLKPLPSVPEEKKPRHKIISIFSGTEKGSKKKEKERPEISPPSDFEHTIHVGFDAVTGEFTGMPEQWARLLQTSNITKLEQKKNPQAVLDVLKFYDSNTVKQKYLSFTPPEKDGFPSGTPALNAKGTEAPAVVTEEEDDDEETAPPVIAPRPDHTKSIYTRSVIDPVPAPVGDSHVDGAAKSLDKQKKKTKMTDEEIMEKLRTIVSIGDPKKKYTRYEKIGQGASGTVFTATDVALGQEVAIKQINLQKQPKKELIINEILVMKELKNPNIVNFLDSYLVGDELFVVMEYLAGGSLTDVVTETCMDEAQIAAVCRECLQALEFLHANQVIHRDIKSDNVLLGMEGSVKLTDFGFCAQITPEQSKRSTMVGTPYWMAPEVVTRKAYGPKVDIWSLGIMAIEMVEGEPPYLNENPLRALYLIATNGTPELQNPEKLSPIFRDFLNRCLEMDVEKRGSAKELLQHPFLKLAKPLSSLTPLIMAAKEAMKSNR
T2 sequence (O14578 whole entry): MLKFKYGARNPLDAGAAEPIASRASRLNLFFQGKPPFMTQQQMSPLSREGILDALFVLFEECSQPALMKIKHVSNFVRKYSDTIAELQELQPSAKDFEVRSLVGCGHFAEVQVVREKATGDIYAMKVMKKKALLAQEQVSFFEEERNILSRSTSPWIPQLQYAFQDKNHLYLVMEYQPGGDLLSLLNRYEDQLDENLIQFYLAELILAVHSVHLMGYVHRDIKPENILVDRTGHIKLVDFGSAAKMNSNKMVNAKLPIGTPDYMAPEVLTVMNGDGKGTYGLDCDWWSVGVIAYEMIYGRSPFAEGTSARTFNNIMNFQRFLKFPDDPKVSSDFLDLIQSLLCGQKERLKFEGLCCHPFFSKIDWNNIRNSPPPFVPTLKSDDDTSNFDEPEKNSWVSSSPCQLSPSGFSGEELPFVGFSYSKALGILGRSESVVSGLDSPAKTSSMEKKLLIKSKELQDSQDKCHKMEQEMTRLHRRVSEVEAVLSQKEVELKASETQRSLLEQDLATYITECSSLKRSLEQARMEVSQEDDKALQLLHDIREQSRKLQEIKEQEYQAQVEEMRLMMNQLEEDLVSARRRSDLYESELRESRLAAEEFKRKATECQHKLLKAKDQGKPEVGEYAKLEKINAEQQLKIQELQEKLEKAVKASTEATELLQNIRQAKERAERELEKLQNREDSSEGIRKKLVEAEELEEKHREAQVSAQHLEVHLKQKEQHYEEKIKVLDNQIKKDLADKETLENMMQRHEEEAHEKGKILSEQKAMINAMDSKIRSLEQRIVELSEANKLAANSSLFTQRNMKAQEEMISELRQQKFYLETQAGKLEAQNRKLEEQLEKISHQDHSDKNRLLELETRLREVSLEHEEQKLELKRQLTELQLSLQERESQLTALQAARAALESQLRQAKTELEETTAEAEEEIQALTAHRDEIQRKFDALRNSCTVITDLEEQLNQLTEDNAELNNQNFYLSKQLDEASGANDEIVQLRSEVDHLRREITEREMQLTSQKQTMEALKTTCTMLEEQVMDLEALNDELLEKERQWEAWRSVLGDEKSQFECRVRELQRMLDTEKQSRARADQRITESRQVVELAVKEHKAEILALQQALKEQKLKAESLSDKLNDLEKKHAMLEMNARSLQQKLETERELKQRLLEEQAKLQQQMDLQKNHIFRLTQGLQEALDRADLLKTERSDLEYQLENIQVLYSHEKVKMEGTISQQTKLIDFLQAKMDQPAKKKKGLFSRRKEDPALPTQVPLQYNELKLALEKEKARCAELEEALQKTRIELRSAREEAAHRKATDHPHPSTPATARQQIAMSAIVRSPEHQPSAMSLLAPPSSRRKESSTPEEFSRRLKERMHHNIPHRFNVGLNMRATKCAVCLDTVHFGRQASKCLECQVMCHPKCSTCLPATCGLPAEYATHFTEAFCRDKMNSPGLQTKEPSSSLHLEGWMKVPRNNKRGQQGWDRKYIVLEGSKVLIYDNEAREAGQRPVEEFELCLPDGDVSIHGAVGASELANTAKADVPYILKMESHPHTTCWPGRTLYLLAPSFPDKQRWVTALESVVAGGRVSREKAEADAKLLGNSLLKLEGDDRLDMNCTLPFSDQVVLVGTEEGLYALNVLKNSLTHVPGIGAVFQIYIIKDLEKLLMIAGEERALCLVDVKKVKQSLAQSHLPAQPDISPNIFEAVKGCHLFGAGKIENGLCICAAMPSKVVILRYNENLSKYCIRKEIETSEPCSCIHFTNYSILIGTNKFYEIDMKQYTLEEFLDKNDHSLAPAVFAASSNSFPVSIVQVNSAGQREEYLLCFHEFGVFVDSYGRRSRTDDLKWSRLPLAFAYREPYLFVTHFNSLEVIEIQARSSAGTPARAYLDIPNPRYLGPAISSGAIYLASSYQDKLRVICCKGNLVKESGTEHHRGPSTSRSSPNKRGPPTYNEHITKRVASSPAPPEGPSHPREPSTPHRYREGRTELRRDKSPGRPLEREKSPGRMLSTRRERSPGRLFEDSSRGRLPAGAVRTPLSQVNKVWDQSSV
T5 sequence (Q14680 whole entry): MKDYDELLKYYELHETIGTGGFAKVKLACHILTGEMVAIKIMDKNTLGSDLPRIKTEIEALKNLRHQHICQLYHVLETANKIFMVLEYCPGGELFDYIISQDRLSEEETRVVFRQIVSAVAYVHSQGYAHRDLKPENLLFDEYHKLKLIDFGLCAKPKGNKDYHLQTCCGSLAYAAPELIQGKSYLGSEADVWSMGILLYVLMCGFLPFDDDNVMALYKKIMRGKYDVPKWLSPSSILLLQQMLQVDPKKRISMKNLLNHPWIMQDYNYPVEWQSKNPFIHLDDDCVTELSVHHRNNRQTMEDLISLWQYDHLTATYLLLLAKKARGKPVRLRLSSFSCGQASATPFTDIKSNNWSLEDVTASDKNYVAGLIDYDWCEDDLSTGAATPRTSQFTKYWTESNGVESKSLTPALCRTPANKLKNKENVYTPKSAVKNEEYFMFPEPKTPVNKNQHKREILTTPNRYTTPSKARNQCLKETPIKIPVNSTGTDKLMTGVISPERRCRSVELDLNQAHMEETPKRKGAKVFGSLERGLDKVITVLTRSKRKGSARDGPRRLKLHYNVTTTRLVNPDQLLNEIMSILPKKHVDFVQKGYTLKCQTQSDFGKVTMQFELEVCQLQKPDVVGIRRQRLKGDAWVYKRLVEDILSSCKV
T1 sequence (O00238 14-502): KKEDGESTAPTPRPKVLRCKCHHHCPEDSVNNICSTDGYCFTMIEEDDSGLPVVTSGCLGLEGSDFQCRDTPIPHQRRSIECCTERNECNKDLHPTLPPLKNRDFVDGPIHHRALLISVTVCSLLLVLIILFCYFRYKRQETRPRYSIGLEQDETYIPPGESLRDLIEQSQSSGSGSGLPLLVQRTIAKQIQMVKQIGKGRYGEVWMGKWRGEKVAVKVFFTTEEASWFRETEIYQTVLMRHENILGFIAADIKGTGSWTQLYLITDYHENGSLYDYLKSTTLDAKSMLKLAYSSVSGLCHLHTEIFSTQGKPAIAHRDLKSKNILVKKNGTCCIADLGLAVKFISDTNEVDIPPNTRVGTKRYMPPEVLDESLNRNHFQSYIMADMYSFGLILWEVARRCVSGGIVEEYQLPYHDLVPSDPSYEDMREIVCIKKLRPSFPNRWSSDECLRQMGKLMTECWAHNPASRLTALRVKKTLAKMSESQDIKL
T3 sequence (P50613 whole entry): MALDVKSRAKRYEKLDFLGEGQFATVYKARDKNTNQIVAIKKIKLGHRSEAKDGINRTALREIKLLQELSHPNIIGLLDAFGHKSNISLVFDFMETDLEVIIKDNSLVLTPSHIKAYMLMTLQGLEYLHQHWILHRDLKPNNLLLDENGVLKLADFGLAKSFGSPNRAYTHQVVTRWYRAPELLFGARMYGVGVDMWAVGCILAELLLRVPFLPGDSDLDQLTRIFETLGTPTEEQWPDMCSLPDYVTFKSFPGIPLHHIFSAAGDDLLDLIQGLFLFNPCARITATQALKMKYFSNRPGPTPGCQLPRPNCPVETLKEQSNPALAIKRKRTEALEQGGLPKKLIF

For `C=CC(=O)Nc1cc(-c2cc(-c3cc4c([nH]3)CCNC4=O)ccn2)ccc1OC(F)(F)F` [compound 11], the inhibition at 0.01 µM ([1]; 10 nM) was -13%, the inhibition at 0.1 µM ([1]; 100 nM) was 4% and the inhibition at 1 µM ([1]; 1000 nM) was 6%. It also gave an inhibition at 0.01 µM ([2]; 10 nM) of -8%, an inhibition at 0.1 µM ([2]; 100 nM) of 6% and an inhibition at 1 µM ([2]; 1000 nM) of 29%. It also gave an inhibition at 0.01 µM ([3]; 10 nM) of 5%, an inhibition at 0.1 µM ([3]; 100 nM) of -1% and an inhibition at 1 µM ([3]; 1000 nM) of -2%. The inhibition at 0.01 µM ([4]; 10 nM) was -3%, the inhibition at 0.1 µM ([4]; 100 nM) was -5% and the inhibition at 1 µM ([4]; 1000 nM) was -3%. The inhibition at 0.01 µM ([5]; 10 nM) was -7%, the inhibition at 0.1 µM ([5]; 100 nM) was 5% and the inhibition at 1 µM ([5]; 1000 nM) was 30%. The inhibition at 0.01 µM ([6]; 10 nM) was -8%, the inhibition at 0.1 µM ([6]; 100 nM) was 6% and the inhibition at 1 µM ([6]; 1000 nM) was 0%. For the same compound, the inhibition at 0.01 µM ([7]; 10 nM) was -8%, the inhibition at 0.1 µM ([7]; 100 nM) was 2% and the inhibition at 1 µM ([7]; 1000 nM) was -4%. It also gave an inhibition at 0.01 µM ([8]; 10 nM) of 1%, an inhibition at 0.1 µM ([8]; 100 nM) of 1% and an inhibition at 1 µM ([8]; 1000 nM) of 5%. The inhibition at 0.01 µM ([9]; 10 nM) was 0%, the inhibition at 0.1 µM ([9]; 100 nM) was 18% and the inhibition at 1 µM ([9]; 1000 nM) was 48%. For the same compound, the inhibition at 0.01 µM ([10]; 10 nM) was 13%, the inhibition at 0.1 µM ([10]; 100 nM) was 41% and the inhibition at 1 µM ([10]; 1000 nM) was 82%. The “inhibitory rate on the other 380 kinases tested” value ([11]; 10 nM, all 380 kinases) was “less than 50%”, the “selectivity for MK2 over the other tested kinases” value ([11]; 91.8% of total tested kinases) was “more than 434 fold” and the Inhibition rate ([11]; ACTR2(h), 10 nM) was -9%. It also gave an Inhibition rate ([11]; ACTR2(h), 100 nM) of -11%, an Inhibition rate ([11]; ACTR2(h), 1000 nM) of -8% and an Inhibition rate ([11]; MAPK1(h), 10 nM) of -1%. It also gave an Inhibition rate ([11]; MAPK1(h), 100 nM) of 0%, an Inhibition rate ([11]; MAPK1(h), 1000 nM) of 7% and an Inhibition rate ([11]; PKCβII(h), 10 nM) of -1%. The Inhibition rate ([11]; PKCβII(h), 100 nM) was 4%, the Inhibition rate ([11]; PKCβII(h), 1000 nM) was 6% and the Inhibition rate ([11]; PKG1β(h), 10 nM) was 7%. For the same compound, the Inhibition rate ([11]; PKG1β(h), 100 nM) was 10% and the Inhibition rate ([11]; PKG1β(h), 1000 nM) was 5%.
